Source: ChEMBL document CHEMBL3045450, “Studies on characteristics of ATPase activity of cardiac myosin in the presence of daunorubicin” (Med Chem Res, 2009)

What was measured:
Assay type in all cases: tissue-based, Heart left ventricle; call rule not given here
[1] = Inhibition of Sus scrofa (pig) left ventricle Ca2+-ATPase activity of cardiac myosin assessed as inorganic phosphorus released from protein at 0.05 to 0.4 uM
[2] = Inhibition of Sus scrofa (pig) left ventricle Ca2+-ATPase activity of cardiac myosin assessed as inorganic phosphorus released from protein at 0.2 uM after 10 min
[3] = Inhibition of Sus scrofa (pig) left ventricle Ca2+-ATPase activity of cardiac myosin assessed as inorganic phosphorus released from protein at 0.05 uM after 30 min; details: 0.5 h
[4] = Inhibition of Sus scrofa (pig) left ventricle Ca2+-ATPase activity of cardiac myosin assessed as inorganic phosphorus released from protein at > 0.1 uM after 10 min
[5] = Inhibition of Sus scrofa (pig) left ventricle Ca2+-ATPase activity of cardiac myosin assessed as inorganic phosphorus released from protein at 0.2 to 1 uM; details: TDE = time-dependent effect
[6] = Inhibition of Sus scrofa (pig) left ventricle Ca2+-ATPase activity of cardiac myosin assessed as inorganic phosphorus released from protein at 0.4 uM in presence of Mg2+
[7] = Inhibition of Sus scrofa (pig) left ventricle Ca2+-ATPase activity of cardiac myosin assessed as inorganic phosphorus released from protein at 0.2 uM after 1 hr
[8] = Inhibition of Sus scrofa (pig) left ventricle Ca2+-ATPase activity of cardiac myosin assessed as residual activity at 0.8 uM

- inhibition (INH) [1]: Active
- inhibition (INH) [2]: Active
- inhibition (INH) [3]: Active
- inhibition (INH) [4]: Active
- inhibition (INH) [5]: tde
- inhibition (INH) [6]: Not Active
- inhibition (INH) [7]: Active
- Activity [8]: 0.12 U
SMILES: COc1cccc2c1C(=O)c1c(O)c3c(c(O)c1C2=O)C[C@@](O)(C(C)=O)C[C@@H]3O[C@H]1C[C@H](N)[C@H](O)[C@H](C)O1 [DAUNORUBICIN]
